According to patent US10676479B2, “Imidazolepyridine compounds and uses thereof” (Novartis AG, priority 2016, dated 2020):

Key:
EED (1-441)-His protein = EED (1-441)-His protein (Homo sapiens (Human), UniProt O75530); experiment: EED-H3K27Me3 peptide competition binding assay by AlphaScreen; details: EED Alphascreen binding Qualified assay
[1] = target: wild type PRC2 (wtPRC2) complex (Homo sapiens (Human), UniProt O75530); experiment: EED LC-MS assay; format: biochemical; details: EED LC-MS Qualified assay; read-out: (b) IC50
Procedure: EED LC-MS Assay Representative compounds of the present invention were serially and separately diluted 3-fold in DMSO to obtain a total of eight or twelve concentrations. […] A 6 μL solution of 3 μM of the peptide substrate H3K27Me0 (histone H3[21-44]-biotin) in reaction buffer was added to initiate each reaction. […] The data were then fit to a dose response equation using the program Helios to get the IC50 values of the test compound.

[2] = system: H3K27 methylation in G401 cell; experiment: ELISA (H3K27 methylation) assay; format: cell-based; details: Homo sapiens, G-401, ELISA Qualified assay, 48 h, read-out: (c) IC50
In short: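 G401 cells given 3-fold serial dilutions (eight or twelve points, top 20 μM) for 48 h. Lysate ELISA for H3K27 methylation normalized to H3 signal, % inhibition versus DMSO, IC50 from dose-response fit.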

wild type PRC2 (wtPRC2) complex, sequence (O75530 whole entry): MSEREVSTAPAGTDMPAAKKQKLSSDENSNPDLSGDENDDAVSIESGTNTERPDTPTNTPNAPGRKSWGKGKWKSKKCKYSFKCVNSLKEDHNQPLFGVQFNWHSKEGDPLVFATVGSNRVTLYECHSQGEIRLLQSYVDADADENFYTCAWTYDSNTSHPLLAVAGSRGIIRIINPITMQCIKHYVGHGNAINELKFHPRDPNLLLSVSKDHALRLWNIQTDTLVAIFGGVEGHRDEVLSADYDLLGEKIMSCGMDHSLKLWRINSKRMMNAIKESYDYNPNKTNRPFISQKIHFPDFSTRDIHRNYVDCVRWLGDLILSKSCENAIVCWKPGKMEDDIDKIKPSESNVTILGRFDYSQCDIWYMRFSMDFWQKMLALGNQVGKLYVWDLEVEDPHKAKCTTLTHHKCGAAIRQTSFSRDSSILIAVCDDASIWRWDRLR
wild type PRC2 (wtPRC2) complex, sequence (Q15910 whole entry partner): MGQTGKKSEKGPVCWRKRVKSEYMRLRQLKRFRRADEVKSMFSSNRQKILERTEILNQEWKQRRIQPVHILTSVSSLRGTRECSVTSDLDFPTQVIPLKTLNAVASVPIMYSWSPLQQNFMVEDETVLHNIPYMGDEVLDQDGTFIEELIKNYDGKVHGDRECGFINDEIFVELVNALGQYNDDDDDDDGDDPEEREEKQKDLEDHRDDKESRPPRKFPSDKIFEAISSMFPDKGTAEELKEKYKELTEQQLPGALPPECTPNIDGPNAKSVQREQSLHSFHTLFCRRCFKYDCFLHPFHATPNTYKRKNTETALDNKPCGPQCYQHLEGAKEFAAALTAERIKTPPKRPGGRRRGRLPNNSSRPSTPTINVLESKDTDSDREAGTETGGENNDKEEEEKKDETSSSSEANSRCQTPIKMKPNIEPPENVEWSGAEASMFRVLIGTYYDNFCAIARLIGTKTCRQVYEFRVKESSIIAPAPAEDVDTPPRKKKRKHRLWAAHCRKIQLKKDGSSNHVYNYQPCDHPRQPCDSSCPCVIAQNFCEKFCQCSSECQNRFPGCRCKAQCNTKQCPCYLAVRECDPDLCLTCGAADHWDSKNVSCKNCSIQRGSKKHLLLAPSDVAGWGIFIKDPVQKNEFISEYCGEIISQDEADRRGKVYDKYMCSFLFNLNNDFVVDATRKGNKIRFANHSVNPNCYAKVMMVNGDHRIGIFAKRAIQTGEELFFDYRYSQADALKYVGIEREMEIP
wild type PRC2 (wtPRC2) complex, sequence (Q15022 whole entry partner): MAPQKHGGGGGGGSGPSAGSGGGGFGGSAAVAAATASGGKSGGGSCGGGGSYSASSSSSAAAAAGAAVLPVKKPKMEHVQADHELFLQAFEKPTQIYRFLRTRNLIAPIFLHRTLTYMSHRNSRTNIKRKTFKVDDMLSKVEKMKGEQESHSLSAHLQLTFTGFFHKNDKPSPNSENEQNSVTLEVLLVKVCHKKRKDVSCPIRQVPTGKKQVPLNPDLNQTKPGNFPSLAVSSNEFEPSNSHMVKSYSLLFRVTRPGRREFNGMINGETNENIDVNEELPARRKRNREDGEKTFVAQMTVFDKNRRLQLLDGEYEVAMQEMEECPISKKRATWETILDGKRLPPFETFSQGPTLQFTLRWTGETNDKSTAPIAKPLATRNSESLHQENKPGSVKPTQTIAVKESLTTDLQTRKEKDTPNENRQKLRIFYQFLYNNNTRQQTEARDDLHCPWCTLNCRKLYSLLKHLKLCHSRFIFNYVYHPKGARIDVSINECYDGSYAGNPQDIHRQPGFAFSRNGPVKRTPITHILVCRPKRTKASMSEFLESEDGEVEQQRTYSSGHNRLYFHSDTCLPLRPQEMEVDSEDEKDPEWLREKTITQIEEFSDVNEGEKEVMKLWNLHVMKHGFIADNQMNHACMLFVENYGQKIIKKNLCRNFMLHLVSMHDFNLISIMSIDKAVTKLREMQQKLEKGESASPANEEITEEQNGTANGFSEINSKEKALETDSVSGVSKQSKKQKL
EED (1-441)-His protein, sequence (O75530 whole entry): as the sequence (O75530 whole entry) above

Row | IC50 (EED (1-441)-His protein) [µM] | IC50 [1] [µM] | IC50 [2] [µM] | Structure (SMILES)
1 | 0.0105 | 0.0345 | 0.0142 | CCC(O)c1ncc(-c2cnc(NCc3c(F)ccc4c3CCO4)n3cnc(C#N)c23)c(C)n1 (stereo not drawn) [Example 80, 5-(((5-fluoro-2,3-dihydrobenzofuran-4-yl)methyl)amino)-8-(2-(1-hydroxypropyl)-4-methylpyrimidin-5-yl)imidazo[1,5-c]pyrimidine-1-carbonitrile]
2 | 0.0083 | 0.0181 | 0.0068 | N#Cc1ncn2c(NCc3c(F)ccc4c3CCO4)ncc(-c3ccc(N4CCOCC4)nc3)c12 [Example 82, 5-(((5-fluoro-2,3-dihydrobenzofuran-4-yl)methyl)amino)-8-(6-morpholinopyridin-3-yl)imidazo[1,5-c]pyrimidine-1-carbonitrile]
3 | 0.0023 | 0.0057 | 0.0131 | Cc1nc(N2CC(C)NC(C)C2)ncc1-c1cnc(NCc2c(F)ccc3c2CCO3)n2cnc(C#N)c12 (stereo not drawn) [Example 83, 8-(2-(3,5-dimethylpiperazin-1-yl)-4-methylpyrimidin-5-yl)-5-(((5-fluoro-2,3-dihydrobenzofuran-4-yl)methyl)amino)imidazo[1,5-c]pyrimidine-1-carbonitrile]
4 | 0.0024 | 0.011 | 0.0117 | Cc1nc(N2CCOCC2)ncc1-c1cnc(NCc2c(F)ccc3c2CCO3)n2cnc(C#N)c12 [Example 84, 5-(((5-fluoro-2,3-dihydrobenzofuran-4-yl)methyl)amino)-8-(4-methyl-2-morpholinopyrimidin-5-yl)imidazo[1,5-c]pyrimidine-1-carbonitrile]
5 | 0.0045 | 0.0172 | 0.0028 | Cn1cncc1-c1cnc(NCc2c(F)ccc3c2CCO3)n2cnc(C#N)c12 [Example 85, 5-(((5-fluoro-2,3-dihydrobenzofuran-4-yl)methyl)amino)-8-(1-methyl-1H-imidazol-5-yl)imidazo[1,5-c]pyrimidine-1-carbonitrile]
6 | 0.0045 | 0.0176 | 0.0025 | N#Cc1ncn2c(NCc3c(F)ccc4c3CCO4)ncc(-c3ccc(N4CCNCC4)nc3)c12 [Example 86, 5-(((5-fluoro-2,3-dihydrobenzofuran-4-yl)methyl)amino)-8-(6-(piperazin-1-yl)pyridin-3-yl)imidazo[1,5-c]pyrimidine-1-carbonitrile]
7 | 0.017 | 0.0297 | 0.0134 | CC(=O)N1CCN(c2ccc(-c3cnc(NCc4c(F)ccc5c4CCO5)n4cnc(C#N)c34)cn2)CC1 [Example 87, 8-(6-(4-acetylpiperazin-1-yl)pyridin-3-yl)-5-(((5-fluoro-2,3-dihydrobenzofuran-4-yl)methyl)amino)imidazo[1,5-c]pyrimidine-1-carbonitrile]
8 | 0.0034 | 0.0117 | 0.013 | Cc1nn(CCO)c(C)c1-c1cnc(NCc2c(F)ccc3c2CCO3)n2cnc(C#N)c12 [Example 88, 5-(((5-fluoro-2,3-dihydrobenzofuran-4-yl)methyl)amino)-8-(1-(2-hydroxyethyl)-3,5-dimethyl-1H-pyrazol-4-yl)imidazo[1,5-c]pyrimidine-1-carbonitrile]
9 | 0.0296 | 0.0425 | 0.195 | COc1cc(CNc2ncc(-c3cccnc3C)c3c(C#N)ncn23)c(F)cc1F [Example 89, 5-((2,4-difluoro-5-methoxybenzyl)amino)-8-(2-methylpyridin-3-yl)imidazo[1,5-c]pyrimidine-1-carbonitrile]
10 | 0.139 | 0.0568 | 0.337 | COc1cccc(F)c1CNc1ncc(-c2cccnc2C)c2c(C#N)ncn12 [Example 90, 5-((2-fluoro-6-methoxybenzyl)amino)-8-(2-methylpyridin-3-yl)imidazo[1,5-c]pyrimidine-1-carbonitrile]
11 | 0.0085 | 0.008 | 0.032 | CCOC(=O)c1ncn2c(NCc3c(F)ccc4c3CCO4)ncc(Br)c12 [Example 91, ethyl 8-bromo-5-(((5-fluoro-2,3-dihydrobenzofuran-4-yl)methyl)amino)imidazo[1,5-c]pyrimidine-1-carboxylate]
12 | 0.0054 | 0.0059 | 0.0007 | CCOC(=O)c1ncn2c(NCc3c(F)ccc4c3CCO4)ncc(-c3ccc(S(C)(=O)=O)cc3)c12 [Example 92, ethyl 5-(((5-fluoro-2,3-dihydrobenzofuran-4-yl)methyl)amino)-8-(4-(methylsulfonyl)phenyl)imidazo[1,5-c]pyrimidine-1-carboxylate]
13 | 0.0049 | 0.0057 | 0.0051 | CCOC(=O)c1ncn2c(NCc3c(F)ccc4c3CCO4)ncc(-c3ccc(C)nc3C)c12 [Example 93, ethyl 8-(2,6-dimethylpyridin-3-yl)-5-(((5-fluoro-2,3-dihydrobenzofuran-4-yl)methyl)amino)imidazo[1,5-c]pyrimidine-1-carboxylate]
14 | 0.0043 | 0.0057 | 0.0036 | CCOC(=O)c1ncn2c(NCc3c(F)ccc4c3CCO4)ncc(-c3cnc(C)nc3C)c12 [Example 94, ethyl 8-(2,4-dimethylpyrimidin-5-yl)-5-(((5-fluoro-2,3-dihydrobenzofuran-4-yl)methyl)amino)imidazo[1,5-c]pyrimidine-1-carboxylate]

The next lines start with the compound.

Row | Structure (SMILES) | IC50 (EED (1-441)-His protein) [µM] | IC50 [1] [µM] | IC50 [2] [µM]
15 | c1cc(CNc2ncc(-c3ccc(N4CCNCC4)nc3)c3cncn23)c2ccoc2c1 [Example 66, N-(benzofuran-4-ylmethyl)-8-(6-(piperazin-1-yl)pyridin-3-yl)imidazo[1,5-c]pyrimidin-5-amine] | 0.0721 | 0.0493 | 0.444
16 | CN(C)Cc1ccc(-c2cnc(NCc3c(F)ccc4occc34)n3cncc23)cc1 [Example 67, 8-(4-((dimethylamino)methyl)phenyl)-N-((5-fluorobenzofuran-4-yl)methyl)imidazo[1,5-c]pyrimidin-5-amine] | 0.0576 | 0.0703 | 0.35
17 | Cc1ncccc1-c1cnc(NCc2c(F)ccc3c2CCO3)n2cnc(C#N)c12 [Example 69, 5-(((5-fluoro-2,3-dihydrobenzofuran-4-yl)methyl)amino)-8-(2-methylpyridin-3-yl)imidazo[1,5-c]pyrimidine-1-carbonitrile] | 0.009 | 0.0141 | 0.0147
18 | N#Cc1ncn2c(NCc3c(F)ccc4c3CCO4)ncc(Br)c12 [Example 70, 8-bromo-5-(((5-fluoro-2,3-dihydrobenzofuran-4-yl)methyl)amino)imidazo[1,5-c]pyrimidine-1-carbonitrile] | 0.0279 | 0.0486 | 0.0868
19 | N#Cc1ncn2c(NCc3c(F)ccc4c3CCO4)ncc(-c3ccc(CN4CCCC4)cc3)c12 [Example 71, 5-(((5-fluoro-2,3-dihydrobenzofuran-4-yl)methyl)amino)-8-(4-(pyrrolidin-1-ylmethyl)phenyl)imidazo[1,5-c]pyrimidine-1-carbonitrile] | 0.0079 | 0.018 | 0.0041
20 | Cc1ccc(-c2cnc(NCc3c(F)ccc4c3CCO4)n3cnc(C#N)c23)cn1 [Example 72, 5-(((5-fluoro-2,3-dihydrobenzofuran-4-yl)methyl)amino)-8-(6-methylpyridin-3-yl)imidazo[1,5-c]pyrimidine-1-carbonitrile] | 0.0108 | 0.0203 | 0.022
21 | N#Cc1ncn2c(NCc3c(F)ccc4c3CCO4)ncc(-c3cccnc3C(F)F)c12 [Example 73, 8-(2-(difluoromethyl)pyridin-3-yl)-5-(((5-fluoro-2,3-dihydrobenzofuran-4-yl)methyl)amino)imidazo[1,5-c]pyrimidine-1-carbonitrile] | 0.0235 | 0.0564 | 0.0553
22 | N#Cc1ncn2c(NCc3c(F)ccc4c3CCO4)ncc(-c3cccnc3)c12 [Example 74, 5-(((5-fluoro-2,3-dihydrobenzofuran-4-yl)methyl)amino)-8-(pyridin-3-yl)imidazo[1,5-c]pyrimidine-1-carbonitrile] | 0.0059 | 0.0156 | 0.007
23 | Cc1ccc(-c2cnc(NCc3c(F)ccc4c3CCO4)n3cnc(C#N)c23)c(C)n1 [Example 75, 8-(2,6-dimethylpyridin-3-yl)-5-(((5-fluoro-2,3-dihydrobenzofuran-4-yl)methyl)amino)imidazo[1,5-c]pyrimidine-1-carbonitrile] | 0.0084 | 0.0167 | 0.0455
24 | CC(c1ccc(-c2cnc(NCc3c(F)ccc4c3CCO4)n3cnc(C#N)c23)cc1)N1CCCC1 (stereo not drawn) [Example 76, 5-(((5-fluoro-2,3-dihydrobenzofuran-4-yl)methyl)amino)-8-(4-(1-(pyrrolidin-1-yl)ethyl)phenyl)imidazo[1,5-c]pyrimidine-1-carbonitrile] | 0.0056 | 0.0153 | 0.0054
25 | N#Cc1ncn2c(NCc3c(F)ccc4c3CCO4)ncc(-c3cccnc3CO)c12 [Example 78, 5-(((5-fluoro-2,3-dihydrobenzofuran-4-yl)methyl)amino)-8-(2-(hydroxymethyl)pyridin-3-yl)imidazo[1,5-c]pyrimidine-1-carbonitrile] | 0.0051 | 0.0162 | 0.0179
26 | CS(=O)(=O)c1ccc(-c2cnc(NCc3c(F)ccc4c3CCO4)n3cnc(C#N)c23)cn1 [Example 79, 5-(((5-fluoro-2,3-dihydrobenzofuran-4-yl)methyl)amino)-8-(6-(methylsulfonyl)pyridin-3-yl)imidazo[1,5-c]pyrimidine-1-carbonitrile] | 0.0053 | 0.0167 | 0.0066
